Source: US8206983B2, “In vitro methods for the induction and maintenance of plant cell lines as single suspension cells with intact cell walls” (Dow AgroSciences, LLC., priority 2006, dated 2012)

Tested on: JTNT1 single cells
Assay: AFLP analysis of genomic instability in JTNT1 single cells produced in 1 uM diphenylpyrazole
Type: cell-based, tobacco
Procedure: JTNT1 Tobacco single cell initiation and sample collection. JTNT1 Tobacco single cells were initiated in two different media, NT1B with 3% sucrose (NT1B-Suc) and NT1B with 3% glycerol (NT1B-Gly) in 3.5 day culture cycle. […] The flasks were closed with a foam stopper and cultured on a orbital shaker at 130 rpm in dark at 25-28° C. The cultures were sub cultured every 3.5 days up to a period of 14 days. Four samples (Suc/Gly grown cells and the control cultures in Suc/Gly media with 0.2% DMSO) of the cultures were harvested every 3.5 days by spinning the suspension at 3000 rpm for 5 minutes. The samples were immediately lyophilized to prevent any cell oxidation to minimize any deleterious effect on the samples introduced post harvest. Single cells were stained with Hoechst nuclear stain for an hour and observed under scopes for any nuclear anomaly up to two culture cycles.
DNA extraction. Genomic DNA from representative samples were harvested from 3.5, 7, 10.5, and 14 days. Suc and Gly cultures along with the controls (10 samples) were extracted using CTAB protocol (See Appendix-Example 12). DNA was quantified using PicoGreen® dye from Molecular Probes, Inc. (Eugene, Oreg.). Each well of a microtiter plate contained 90 μl of 200-fold picogreen combined with 10 μl of DNA sample at 40× dilution or Lambda DNA standards (0, 2.5, 5 and 10 ng/μl). Plates were shaken briefly using standard plate shaker, and fluorescence was read (excitation ˜480 nm, emission ˜520 nm) using Spectra Max GeminiXS fluorometer from Molecular Devices (Sunnyvale, Calif.). Each sample was quantified in triplicate, and an average of the three results was used for subsequent dilutions. The DNA sample concentrations were diluted to working concentration of 91 ng/μl with sterile water.
AFLP analysis. Amplified fragment length polymorphism (AFLP) assays were performed using a modification of the protocol of Vos et. al. (1995), as described in Bryan et. al. (2002). The 6-bp cutting restriction enzyme EcoRI was used in combination with the 4-bp cutting restriction enzyme MseI. EcoR1 fluorescently labeled and Mse1 non-labeled AFLP primers were ordered from Applied Biosystems (Foster City, Calif.). AFLP analysis was carried out using Applied Biosystems' AFLP Plant Mapping Protocol through the selective amplification reaction with one modification. The modification was that digestion/ligation reactions were incubated at 37° C. overnight. Selectively amplified products were diluted 2 fold in sterilized deionized water. 0.5 ul of the diluted product was combined with 5 ul of loading buffer (5 ul GeneScan 500 by LIZ size standard mixed with 500 ul ABI HiDi Formamide). Samples were analyzed on an AB3730XL DNA Analyzer with G5-RCT spectral matrix using standard conditions. Data was then imported into GeneMapper® version 4.0 (Applied Biosystems, 2005). Alleles were assigned a numeric value according to PCR fragment size.

## CCOC(=O)COc1nn(-c2ccccc2)c(-c2ccccc2)c1Cl [DAS-PMTI-1]
All primer combinations, 14 d, Gly, 1 uM
  Number of polymorphic bands, Total: 34
Concentration range tested
  subculture cycles without genomic instability problem: at least 4 subculture cycles
Primer 1p AC/CAG, 3.5 d, Gly, 1 uM
  Number of polymorphic bands: 0
Primer 1p AC/CAG, 3.5 d, Suc, 1 uM
  Number of polymorphic bands: 0
Primer 1p AC/CAG, 7 d, Gly, 1 uM
  Number of polymorphic bands: 0
Primer 1p AC/CAG, 7 d, Suc, 1 uM
  Number of polymorphic bands: 0
Primer 1p AC/CAG, 10.5 d, Gly, 1 uM
  Number of polymorphic bands: 0
Primer 1p AC/CAG, 10.5 d, Suc, 1 uM
  Number of polymorphic bands: 0
Primer 1p AC/CAG, 14 d, Gly, 1 uM
  Number of polymorphic bands: 5
Primer 1p AC/CAG, 14 d, Suc, 1 uM
  Number of polymorphic bands: 0
Primer 2p AGC/CAG, 3.5 d, Gly, 1 uM
  Number of polymorphic bands: 0
Primer 2p AGC/CAG, 3.5 d, Suc, 1 uM
  Number of polymorphic bands: 0
Primer 2p AGC/CAG, 7 d, Gly, 1 uM
  Number of polymorphic bands: 0
Primer 2p AGC/CAG, 7 d, Suc, 1 uM
  Number of polymorphic bands: 0
Primer 2p AGC/CAG, 10.5 d, Gly, 1 uM
  Number of polymorphic bands: 0
Primer 2p AGC/CAG, 10.5 d, Suc, 1 uM
  Number of polymorphic bands: 0
Primer 2p AGC/CAG, 14 d, Gly, 1 uM
  Number of polymorphic bands: 10
Primer 2p AGC/CAG, 14 d, Suc, 1 uM
  Number of polymorphic bands: 0
Primer 3p AGC/CTG, 3.5 d, Gly, 1 uM
  Number of polymorphic bands: 0
Primer 3p AGC/CTG, 3.5 d, Suc, 1 uM
  Number of polymorphic bands: 0
Primer 3p AGC/CTG, 7 d, Gly, 1 uM
  Number of polymorphic bands: 0
Primer 3p AGC/CTG, 7 d, Suc, 1 uM
  Number of polymorphic bands: 0
Primer 3p AGC/CTG, 10.5 d, Gly, 1 uM
  Number of polymorphic bands: 0
Primer 3p AGC/CTG, 10.5 d, Suc, 1 uM
  Number of polymorphic bands: 0
Primer 3p AGC/CTG, 14 d, Gly, 1 uM
  Number of polymorphic bands: 0
Primer 3p AGC/CTG, 14 d, Suc, 1 uM
  Number of polymorphic bands: 0
Primer 4p ACT/CTT, 3.5 d, Gly, 1 uM
  Number of polymorphic bands: 0
Primer 4p ACT/CTT, 3.5 d, Suc, 1 uM
  Number of polymorphic bands: 0
Primer 4p ACT/CTT, 7 d, Gly, 1 uM
  Number of polymorphic bands: 0
Primer 4p ACT/CTT, 7 d, Suc, 1 uM
  Number of polymorphic bands: 0
Primer 4p ACT/CTT, 10.5 d, Gly, 1 uM
  Number of polymorphic bands: 0
Primer 4p ACT/CTT, 10.5 d, Suc, 1 uM
  Number of polymorphic bands: 0
Primer 4p ACT/CTT, 14 d, Gly, 1 uM
  Number of polymorphic bands: 5
Primer 4p ACT/CTT, 14 d, Suc, 1 uM
  Number of polymorphic bands: 0
Primer 5p ACT/CAG, 3.5 d, Gly, 1 uM
  Number of polymorphic bands: 0
Primer 5p ACT/CAG, 3.5 d, Suc, 1 uM
  Number of polymorphic bands: 0
Primer 5p ACT/CAG, 7 d, Gly, 1 uM
  Number of polymorphic bands: 0
Primer 5p ACT/CAG, 7 d, Suc, 1 uM
  Number of polymorphic bands: 0
Primer 5p ACT/CAG, 10.5 d, Gly, 1 uM
  Number of polymorphic bands: 0
Primer 5p ACT/CAG, 10.5 d, Suc, 1 uM
  Number of polymorphic bands: 0
Primer 5p ACT/CAG, 14 d, Gly, 1 uM
  Number of polymorphic bands: 3
Primer 5p ACT/CAG, 14 d, Suc, 1 uM
  Number of polymorphic bands: 0
Primer 7p ACC/CAG, 3.5 d, Gly, 1 uM
  Number of polymorphic bands: 0
Primer 7p ACC/CAG, 3.5 d, Suc, 1 uM
  Number of polymorphic bands: 0
Primer 7p ACC/CAG, 7 d, Gly, 1 uM
  Number of polymorphic bands: 0
Primer 7p ACC/CAG, 7 d, Suc, 1 uM
  Number of polymorphic bands: 0
Primer 7p ACC/CAG, 10.5 d, Gly, 1 uM
  Number of polymorphic bands: 0
Primer 7p ACC/CAG, 10.5 d, Suc, 1 uM
  Number of polymorphic bands: 0
Primer 7p ACC/CAG, 14 d, Gly, 1 uM
  Number of polymorphic bands: 4
Primer 7p ACC/CAG, 14 d, Suc, 1 uM
  Number of polymorphic bands: 0
Primer 8p ACC/CTG, 3.5 d, Gly, 1 uM
  Number of polymorphic bands: 0
Primer 8p ACC/CTG, 3.5 d, Suc, 1 uM
  Number of polymorphic bands: 0
Primer 8p ACC/CTG, 7 d, Gly, 1 uM
  Number of polymorphic bands: 0
Primer 8p ACC/CTG, 7 d, Suc, 1 uM
  Number of polymorphic bands: 0
Primer 8p ACC/CTG, 10.5 d, Gly, 1 uM
  Number of polymorphic bands: 0
Primer 8p ACC/CTG, 10.5 d, Suc, 1 uM
  Number of polymorphic bands: 0
Primer 8p ACC/CTG, 14 d, Gly, 1 uM
  Number of polymorphic bands: 0
Primer 8p ACC/CTG, 14 d, Suc, 1 uM
  Number of polymorphic bands: 0
Primer 9p ACA/CAG, 3.5 d, Gly, 1 uM
  Number of polymorphic bands: 0
Primer 9p ACA/CAG, 3.5 d, Suc, 1 uM
  Number of polymorphic bands: 0
Primer 9p ACA/CAG, 7 d, Gly, 1 uM
  Number of polymorphic bands: 0
Primer 9p ACA/CAG, 7 d, Suc, 1 uM
  Number of polymorphic bands: 0
Primer 9p ACA/CAG, 10.5 d, Gly, 1 uM
  Number of polymorphic bands: 0
Primer 9p ACA/CAG, 10.5 d, Suc, 1 uM
  Number of polymorphic bands: 0
Primer 9p ACA/CAG, 14 d, Gly, 1 uM
  Number of polymorphic bands: 7
Primer 9p ACA/CAG, 14 d, Suc, 1 uM
  Number of polymorphic bands: 0
